Measured values from patent US10485769B2, “Cholesteryl ester transfer protein (CETP) inhibition in the treatment of cancer” (KING ABDULLAH UNIVERSITY OF SCIENCE AND TECHNOLOGY, priority 2015, dated 2019).
Like-named read-outs stand apart in the source and are kept apart here.

Columns and labels:
MCF-7 cells = assay: Mitochondrial Outer Membrane Potential (MOMP) by flow cytometry; type: cell-based, human; conditions: 10 μM PL, AP; 100 mM H2O2 positive control; versus untreated cells
Procedure: (§1) FIG. 2: Mode of induction in MCF-7 cells after treatment with AP and PL was determined by measuring changes in MOMP and levels of apoptosis-associated proteins. The cells were incubated with 10 μM AP and PL for different time intervals to capture the timeline of apoptosis induction in MCF-7 cells. The changes in MOMP were measured using flow cytometry after treating MCF-7 cells with PL and AP for 1, 2 and 4 h (A). The alteration in expression of several apoptosis-associated proteins were determined using western blotting after incubating MCF-7 cells for 1, 2, 4, 6 h with PL (C, E) and AP (D. F).
The changes in Mitochondrial Outer Membrane Potential (MOMP) and proteins involved in the apoptotic cascade were assessed (FIG. 2).

[1] = test system: apoptosis-associated proteins in MCF-7 cells; assay: Western blotting of apoptosis-associated proteins; type: cell-based, human; conditions: 10 μM; for PARP-1 cleavage: 12 and 24 h time points; for expression of DNA damage marker pH2AX: as early as 2 h, remained elevated
Procedure: as §1, with “The alteration in expression of several apoptosis-associated proteins were determined using western blotting after incubating MCF-7 cells for 1, 2, 4, 6 h with PL (C, E) and AP (D.” left out
Intrinsic apoptosis is activated by the mitochondria where MOMP is reduced and the imbalance between pro- and anti-apoptotic factors results in activation of caspases 9, 3 and 7, cleavage of caspase substrate like PARP-1 (Poly [ADP-ribose] polymerase 1) and fragmentation of DNA. After treatment with 10 μM PL and AP alterations in the ratio of Bax and Bcl2 were observed and pro-caspase 9 levels were reduced (FIGS. 2B and C).

BJ cells = assay: BJ cell morphology on treatment (lipid raft staining experiment); type: cell-based, human
CETP [2] = assay: CETP mRNA in mice tumor samples, qRT-PCR; type: in vivo; conditions: 2 mg/kg PL, 5 mg/kg AP
Procedure: (§2) FIG. 7: Levels of CETP mRNA in tumor (A) and protein in serum (B) in mice tumor samples after treatment with 2 mg/kg PL or 5 mg/kg AP were determined with the RT-PCR and western blotting, respectively. Fold change in expression of serum protein was determined using densitometry analysis of western blots using ImageJ (C). CETP activity in serum was estimated using CETP activity kit (name of kit/manufacturer) (D). Values represent the means±SD of three independent experiments. * where p≤0.05, and ** where p≤0.005.
(§3) We performed qRT-PCR using mRNA isolated from mice tumor samples to determine the expression of CETP after treatment with PL and AP (FIG. 7A). […] CETP mRNA is translated into 74 kD protein comprised of 476 amino acids that localizes in plasma. […] CETP protein levels in mice serum samples were determined by western blotting (FIG. 7B).

CETP [3] = assay: CETP protein in mice serum, western blotting and densitometry; type: in vivo; conditions: 2 mg/kg PL, 5 mg/kg AP, compared to Vehicle
Procedure: as §2, §3

BJ CETP siRNA cells = assay: Cholesterol levels in BJ CETP siRNA cells; type: cell-based, human; conditions: treated with PL or AP or left untreated
BJ CETP knockdown cells = assay: Apoptosis in BJ CETP knockdown cells; type: cell-based, human; conditions: 10 μM PL or AP
Procedure: FIG. 10: The effect of CETP mRNA silencing on MMP (A), Capase-3/7 activity (B) and apoptosis in MCF-7 (C) and BJ (D) untransfected, cntl siRNA and CETP knockout cells after treatment with 10 μM PL or AP. Values represent the means±SD of three independent experiments.
Next, we intended to see if CETP silencing increased sensitivity of MCF-7 cells to apoptosis.

CETP [4] = target: T1, CETP (Homo sapiens, UniProt P11597); assay: Thermal shift assay (TSA) in MCF-7 cells; type: binding; conditions: 10 μM, two hours, 56° C. to 70° C.; untreated decreases around 64° C.
T1 construct: endogenous in cells; host or cells: MCF-7
T1 sequence (P11597 18-493): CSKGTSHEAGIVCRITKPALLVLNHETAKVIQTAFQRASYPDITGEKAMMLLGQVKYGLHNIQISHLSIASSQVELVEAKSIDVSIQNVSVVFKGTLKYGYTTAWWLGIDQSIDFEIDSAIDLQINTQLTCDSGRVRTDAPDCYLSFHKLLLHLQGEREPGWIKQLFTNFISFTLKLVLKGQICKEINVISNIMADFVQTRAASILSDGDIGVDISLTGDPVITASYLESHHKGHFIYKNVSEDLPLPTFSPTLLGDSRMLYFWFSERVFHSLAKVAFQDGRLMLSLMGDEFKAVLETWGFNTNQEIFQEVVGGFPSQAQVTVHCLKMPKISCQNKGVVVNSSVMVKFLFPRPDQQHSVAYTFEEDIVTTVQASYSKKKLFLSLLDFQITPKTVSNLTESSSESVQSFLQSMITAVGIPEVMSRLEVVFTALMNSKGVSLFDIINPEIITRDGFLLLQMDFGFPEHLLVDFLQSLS
Procedure: FIG. 14: Illustration of the amount of stabilized CETP protein in the presence of compounds using TSA. MCF-7 cells were left untreated (Untx) and were treated with 10 μM of AP/PL for two hours. TSA was performed using temperature range 56° C. to 70° C. with 2° C. intervals. The western blotting was performed after the assay and CETP was detected. The experiment was performed in duplicate.
Thermal shift assay (TSA) captures the drug protein binding using the fact that the thermostability of the protein is changed after ligand binding. We did three runs of TSA [20] to identify direct binding of AP with CETP (FIG. 14). […] Further studies are needed to study the effects of thermostability on function of CETP.

Row | Compound | MOMP, fluorescence in the FL-2 channel (MCF-7 cells) | pro-caspase 9 levels [1] | ratio of Bax and Bcl2 [1] | reduction of pro-caspase 7, time observed [1] | PARP-1 cleavage [1] | expression of DNA damage marker pH2AX [1] | effects on BJ cell morphology (BJ cells; treated with PL or AP) | reduction of CETP expression in tumors (mRNA) (CETP [2]) | CETP protein levels in serum (CETP [3]) | cholesterol levels (BJ CETP siRNA cells) | sensitivity to apoptosis (BJ CETP knockdown cells) | thermostability of CETP protein (CETP [4]) | effects on BJ cell morphology (BJ cells)
1 | CC(=O)Oc1cccc2c1C(=O)C=C(C)C2=O [AP, Acetyl Plumbagin] | lower fluorescent values | reduced | alterations | reduced at 12 h | substantially reduced from full length to the cleaved fragment | significantly increased | no adverse effects | 60% | upregulated | No significant changes | no increased sensitivity to apoptosis | more stable even at 70 °C | –
2 | CC1=CC(=O)c2c(O)cccc2C1=O [PL, 5-hydroxy-2-methyl-1,4-naphthoquinone, reference compound] | lower fluorescent values | reduced | alterations | as early as 2 and 6 h | substantially reduced from full length to the cleaved fragment | significantly increased | – | no effect | slightly reduced | No significant changes | no increased sensitivity to apoptosis | more stable even at 70 °C | no adverse effects
